Legend:
Type in all cases: in vivo
[1] = system: Diamond Back Moth (Plutella xylostella); assay: Action on diamond back moth (Plutella xylostella), cabbage leaf dip; conditions: foliar, 3rd instar larvae on dipped cabbage leaves, 72 hours after treatment, read-out: mortality in comparison with untreated controls
Protocol: The active compound is dissolved at the desired concentration in a mixture of 1:1 (vol:vol) distilled water:acetone. Surfactant (Kinetic® HV) is added at a rate of 0.01% (vol/vol).The test solution is prepared at the day of use.
Leaves of cabbage were dipped in test solution and air-dried. Treated leaves were placed in petri dishes lined with moist filter paper and inoculated with ten 3rd instar larvae. Mortality was recorded 72 hours after treatment. Feeding damages were also recorded using a scale of 0-100%.

[2] = system: tobacco budworm (Heliothis virescens); assay: Action on tobacco budworm (Heliothis virescens), 96-well microtiter plate diet test; conditions: 120 h, egg and larval mortality after 5 days, read-out: mortality in comparison with untreated controls
Protocol: For evaluating control of tobacco budworm (Helliothis virescens) the test unit consisted of 96-well-microtiter plates containing an insect diet and 15-25 H. virescens eggs.
The compounds were formulated using a solution containing 75% v/v water and 25% v/v DMSO. Different concentrations of formulated compounds were sprayed onto the insect diet at 10 μl, using a custom built micro atomizer, at two replications.
After application, microtiter plates were incubated at about 28±1° C. and about 80±5% relative humidity for 5 days. Egg and larval mortality was then visually assessed.

[3] = system: Southern Armyworm (Spodoptera eridania), 2nd Instar Larvae; assay: Action on southern armyworm (Spodoptera eridania), 2nd instar larvae, sprayed lima bean plants; conditions: 96 h, 2nd instar larvae on lima bean, 4 days after treatment, read-out: mortality in comparison with untreated controls
Protocol: The active compounds were formulated by a Tecan liquid handler in 100% cyclohexanone as a 10,000 ppm solution supplied in tubes. The 10,000 ppm solution was serially diluted in 100% cyclohexanone to make interim solutions. These served as stock solutions for which final dilutions were made by the Tecan in 50% acetone:50% water (v/v) into 10 or 20 ml glass vials. A nonionic surfactant (Kinetic®) was included in the solution at a volume of 0.01% (v/v). The vials were then inserted into an automated electrostatic sprayer equipped with an atomizing nozzle for application to plants/insects.
Lima bean plants (variety Sieva) were grown 2 plants to a pot and selected for treatment at the 1st true leaf stage. Test solutions were sprayed onto the foliage by an automated electrostatic plant sprayer equipped with an atomizing spray nozzle. The plants were dried in the sprayer fume hood and then removed from the sprayer. Each pot was placed into perforated plastic bags with a zip closure. About 10 to 11 armyworm larvae were placed into the bag and the bags zipped closed. Test plants were maintained in a growth room at about 250C and about 20-40% relative humidity for 4 days, avoiding direct exposure to fluorescent light (24 hour photoperiod) to prevent trapping of heat inside the bags. Mortality and reduced feeding were assessed 4 days after treatment, compared to untreated control plants.

For `Cc1nc(N(C)c2ccc(OC(F)(F)F)cc2)ncc1CC(C)/C=N/N=C1\SCC(=O)N1c1ccccc1C(C)C` (stereo not drawn) [Compound C-24, (2Z)-3-(2-isopropylphenyl)-2-[(E)-[2-methyl-3-[4-methyl-2-[N-methyl-4-(trifluoromethoxy)anilino]pyrimidin-5-yl]propylidene]hydrazono]thiazolidin-4-one], which mortality at 500 ppm [1] is on record?
Its mortality at 500 ppm is at least 75%.

What about the mortality at 800 ppm [2] of the same compound?
The mortality at 800 ppm was at least 75%.

For `CC(C)c1ccccc1N1C(=O)CS/C1=N\N=C\C(=O)N(C)c1cnc(N(C)c2ccc(OC(F)(F)F)cc2)nc1` [Compound C-10, (2E)-2-[(Z)-[3-(2-isopropylphenyl)-4-oxo-thiazolidin-2-ylidene]hydrazono]-N-methyl-N-[2-[N-methyl-4-(trifluoromethoxy)anilino]pyrimidin-5-yl]acetamide], which mortality at 500 ppm [1] is on record?
The mortality at 500 ppm was at least 75%.

What about the mortality at 300 ppm [3] of the same compound?
Its mortality at 300 ppm is at least 75%.

And the mortality at 800 ppm [2]?
Its mortality at 800 ppm is at least 75%.

Which results are given for `CC(C)c1ccccc1NC(=S)N/N=C/COc1cnc(N(C)c2ccc(OC(F)(F)F)cc2)nc1` [Compound C-18, 1-(2-isopropylphenyl)-3-[(E)-2-[2-[N-methyl-4-(trifluoromethoxy)anilino]pyrimidin-5-yl]oxyethylideneamino]thiourea]?
mortality at 500 ppm [1]: ≥ 75%; mortality at 300 ppm [3]: ≥ 75%

Which mortality at 500 ppm [1] does the source give for `CC(C)c1ccccc1N1C(=O)CS/C1=N\N=C\COc1ccc(N(C)c2ccc(OC(F)(F)F)cc2)nn1` [Compound C-29, (2Z)-3-(2-isopropylphenyl)-2-[(E)-2-[6-[N-methyl-4-(trifluoromethoxy)anilino]pyridazin-3-yl]oxyethylidenehydrazono]thiazolidin-4-one] here?
The mortality at 500 ppm was at least 75%.

Which results are given for `Cc1cc(N(C)c2ccc(OC(F)(F)F)cc2)nc(C)c1OC/C=N/NC(=S)Nc1ccccc1C(C)C` [Compound C-30, 1-[(E)-2-[[2,4-dimethyl-6-[N-methyl-4-(trifluoromethoxy)anilino]-3-pyridyl]oxy]ethylideneamino]-3-(2-isopropylphenyl)thiourea]?
mortality at 500 ppm [1]: ≥ 75%; mortality at 800 ppm [2]: ≥ 75%

With `CC(/C=N/N=C1\SCC(=O)N1c1ccccc1C(C)C)Oc1ccc(N(C)c2ccc(OC(F)(F)F)cc2)nn1` (stereo not drawn) [Compound C-28, (2Z)-3-(2-isopropylphenyl)-2-[(E)-2-[6-[N-methyl-4-(trifluoromethoxy)anilino]pyridazin-3-yl]oxypropylidenehydrazono]thiazolidin-4-one] as the compound, how does the mortality at 500 ppm [1] read?
The mortality at 500 ppm was at least 75%.

With `CC(C)c1ccccc1N1C(=O)CS/C1=N\N=C\C(=O)Nc1cnc(N(C)c2ccc(OC(F)(F)F)cc2)nc1` [Compound C-11, (2E)-2-[(Z)-[3-(2-isopropylphenyl)-4-oxo-thiazolidin-2-ylidene]hydrazono]-N-[2-[N-methyl-4-(trifluoromethoxy)anilino]pyrimidin-5-yl]acetamide] as the compound, how does the mortality at 500 ppm [1] read?
The mortality at 500 ppm was at least 75%.

And the mortality at 300 ppm [3]?
Its mortality at 300 ppm is at least 75%.

What about the mortality at 800 ppm [2] of the same compound?
The mortality at 800 ppm was at least 75%.

What does the source list for `CC(C)c1ccccc1N1C(=O)CS/C1=N\N=C\COc1cnc(N(C)c2ccc(OC(F)(F)F)cc2)nc1` [Compound C-19, (2Z)-3-(2-isopropylphenyl)-2-[(E)-2-[2-[N-methyl-4-(trifluoromethoxy)anilino]pyrimidin-5-yl]oxyethylidenehydrazono]thiazolidin-4-one]?
mortality at 500 ppm [1]: ≥ 75%; mortality at 300 ppm [3]: ≥ 75%

With `CC(/C=N/N=C1\SCC(=O)N1c1ccccc1C(C)C)Oc1cnc(N(C)c2ccc(OC(F)(F)F)cc2)nc1` (stereo not drawn) [Compound C-21, (2Z)-3-(2-isopropylphenyl)-2-[(E)-2-[2-[N-methyl-4-(trifluoromethoxy)anilino]pyrimidin-5-yl]oxypropylidenehydrazono]thiazolidin-4-one] as the compound, how does the mortality at 500 ppm [1] read?
The mortality at 500 ppm was at least 75%.

With `CC(/C=N/NC(=S)Nc1ccccc1C(C)C)Oc1cnc(N(C)c2ccc(OC(F)(F)F)cc2)nc1` (stereo not drawn) [Compound C-20, 1-(2-isopropylphenyl)-3-[(E)-2-[2-[N-methyl-4-(trifluoromethoxy)anilino]pyrimidin-5-yl]oxypropylideneamino]thiourea] as the compound, how does the mortality at 500 ppm [1] read?
The mortality at 500 ppm was at least 75%.

— patent publication US20200077658A1, “Pesticidal Compounds” (BASF SE, priority 2016, published 2020)
